Columns and labels:
JNK = JNK in vitro kinase assay after transfection of 293 cells; assay type: cell-based, human; conditions: 293 cells cotransfected with TRAF2, 24 hours
Method: Inhibition of TRAF2 (A) and TNFα (B, C) mediated JNK/SAPK activation by ectopic expression of KRC. (A) 293 T cells were transfected with 400 ng of TRAF2 and 2 μg of the indicated expression vector. Twenty-four hours after the transfection, the cells were harvested and lysed, and the endogenous JNK was precipitated with 5 μg of GST-cJUN (1-79) for 4 hours. JNK activity was determined by using GST-cJUN (1-79) as a substrate. (B,C) 293 T cells were cotransfected with vectors encoding HA-tagged JNK2 (500ng) and the indicated expression vector (2 μg). Twenty-four hours after the transfection cells were stimulated for 10 min with 10 ng/ml of TNFα and cells harvested at varying time points. JNK activity was assayed with GST-cJUN (1-79) as substrate.
Anti-HA or anti-FLAG immunoprecipitates were used for immune complex kinase assays that were performed at 30° C. for 30 min with 1 μg of substrate, 10 μCi of γ^32 P ATP, and 10 μM ATP in 30 μl of kinase buffer (20 mM HEPES, pH 7.4, 10 mM MgCl2, 25 mM β-glycerophosphate, 50 μm NA3VO4, and 50 μm DTT). The substrate was GST-c-JUN.

TRAF2, TRAF5, TRAF6 = assay: Coimmunoprecipitation with TRAF family members in 293T cells; assay type: binding
Description: FIGS. 1(A)-1(E) show the interaction of amino acid residues 204 to 1055 of KRC (“KRC tr”) (amino acids 204-1055 of SEQ ID NO:2) with TRAF family members. […] FIG. 1(B) upper panel depicts the interaction of KRC tr with TRAFs in mammalian cells. 293 T cells were cotransfected with the indicated FLAG-TRAFs and MYC-tagged KRC tr, and immunoprecipitated with anti-MYC antibody, followed by blotting with anti-FLAG antibody. FIG. 1(B) lower panel depicts the direct western blot of overexpressed TRAFS and KRC tr with anti-FLAG or anti-MYC. FIG. 1(C) depicts the differential interaction of KRC tr with TRAF proteins. The coimmunoprecipitation experiments were performed in the presence of 300 mM NaCl instead of 137 mM NaCl. FIG. 1(D) depicts KRC tr interacting with TRAF2 lacking the Ring finger domain. 293 T cells were transfected with MYC-KRC tr and with FLAG tagged TRAF2 or with FLAG-tagged TRAF2 (87-501). FIG. 1(E) depicts the interaction of KRC tr with endogenous TRAF2 but not with endogenous TRAF5 or TRAF6. 293T were transfected with an expression vector encoding an MYC-tagged KRC tr, or empty plasmid. Lysates from 293T cells were incubated with anti-MYC antibodies. Coimmunoprecipitated endogenous TRAF was detected by western blotting with specific anti-TRAF antibodies.
Effectene™ mediated transfections into 293T cells were performed. […]

TNFα = assay: Northern blot of endogenous TNFα in stably transfected RAW macrophage clones; assay type: cell-based; conditions: stable RAW transfectants, baseline
Method: Northern blotting analysis was performed using total RNA made from RAW cell lines transfected with an empty vector as a control and from a panel of 9 independent RAW clones stably transfected with full-length KRC (upper) and 3 RAW clones stably transfected with dominant negative KRC (lower). The blot was probed with a TNFα cDNA and with HPRT as loading control.
HEK293 cells ([…] per well) were seeded in 6 well plates, and 12 h later cells were transfected with EFECTENE™ (Qiagen) with 25 ng of a 2XNFκB-luciferase (Luc) reporter gene plasmid and 0.5 μg of the indicated TRAF and KRC expression vectors. Total amounts of transfected DNA were kept constant by supplementing with control empty expression vector plasmids as needed. Cell extracts were prepared 24 h after transfection, and reporter gene activity was determined via the luciferase assay system (PROMEGA). PRSV-βGal vector (50 ng) was used to normalize for transfection efficiency by measuring β galactosidase activity using the Galacton-PLUS substrate system (TROPIX, Inc.). Whenever indicated, the cells were treated for 4 hours with TNFα or IL-1 (10 ng/ml). To generate stable transfectants, EFECTENE™ mediated transfection of the RAW cell line was performed and clones were selected and maintained in complete medium supplemented with G418 (2 mg/ml). […]

KRC: full-length KRC zinc finger protein (SEQ ID NO:2) overexpressed from an expression vector
TRAF2-dependent JNK activation (JNK): blocked JNK activation only partially | interaction with TRAF family members (TRAF2, TRAF5, TRAF6): higher affinity with TRAF2 than with TRAF5 and TRAF6 | endogenous TNFα mRNA expression (TNFα): substantial decrease of baseline TNFα mRNA transcripts

From US7615380B2, “Methods for modulating an immune response by modulating KRC activity” (President and Fellows of Harvard College, priority 2001, dated 2009)
